In paper PMC11145868, “Protein target similarity is positive predictor of in vitro antipathogenic activity: a drug repurposing strategy for Plasmodium falciparum” (Journal of Cheminformatics, 2024):
Structures can show the parent of a compound that is named as a salt. Where two headings read alike, the source gives them in different places.

What was measured:
[1] = system: P. berghei-luciferase sporozoites; assay: microbe, parasite or virus in culture; format: cell-based, Plasmodium berghei; details: read-out: Liver stage 48h EC50
P. falciparum Dd2-HLH [2] = assay: microbe, parasite or virus in culture; format: cell-based, Plasmodium falciparum
[3] = Mammalian cell cytotoxicity assay, HEK293T (CellTiter-Glo, 72 h); details: human, HEK293T cells
P. falciparum Dd2-HLH [4] = assay: microbe, parasite or virus in culture; format: cell-based, Plasmodium falciparum; details: read-out: Blood stage 72h EC50
[5] = Plasmodium berghei, HepG2, liver-stage parasites, 48 hours in culture
[6] = Plasmodium falciparum, DD2, 48 h, read-out: Blood stage 48h EC50
[7] = Plasmodium falciparum, DD2, 72 h
[8] = liver-stage parasites, 48 hours in culture
[9] = P. falciparum blood-stage parasites, 48 hours in culture, read-out: Blood stage 48h EC50
[10] = P. falciparum blood-stage parasites, 72 hours in culture

Row | Compound | EC50 [1, 5] | EC50 (P. falciparum Dd2-HLH [2]; [6]) | CC50 at 72 h [3] | EC50 (P. falciparum Dd2-HLH [4]; [7]) | EC50 [1, 8] | EC50 (P. falciparum Dd2-HLH [2]; [9]) | EC50 (P. falciparum Dd2-HLH [4]; [10]) | EC50 (P. falciparum Dd2-HLH [2]; Plasmodium falciparum, DD2, Hec50, 48 h, read-out: Blood stage 48 h EC50) | EC50 ([1]; Plasmodium berghei, HepG2, 48 h) | EC50 (P. falciparum Dd2-HLH [2]; Plasmodium falciparum, DD2, read-out: EC50 (antiplasmodial, quoted in discussion from Supplementary Table 1))
1 | Cc1cc(Nc2nc(C(O)c3ccc(F)cc3)nc3ccccc23)n[nH]1 (stereo not drawn) [AC-430] | 4210 nM | 1200 nM | > 9950 nM | 924 nM |  |  |  |  |  | 
2 | O=C(Nc1c[nH]nc1-c1nc2ccc(CN3CCOCC3)cc2[nH]1)NC1CC1 [AT-9283] | 569 nM | 129 nM |  | 864 nM |  |  |  |  |  | 
3 | CN(C)Cc1c(C(=O)NCCOc2ccc(C(=O)NO)cc2)oc2ccccc12 [Abexinostat] | 1190 nM | 51 nM | 376 nM | 91 nM |  |  |  |  |  | 
4 | CCc1cc2c(cc1N1CCC(N3CCOCC3)CC1)C(C)(C)c1[nH]c3cc(C#N)ccc3c1C2=O [Alectinib Hydrochloride] | 152 nM | 907 nM | 797 nM | 926 nM |  |  |  |  |  | 
5 | COc1ccc(C[C@H]2NC[C@H](O)[C@H]2OC(C)=O)cc1 [Anisomycin] |  |  |  |  | 266 nM | 44 nM | 61 nM |  |  | 
6 | COc1ccc(CCN2CCC(Nc3nc4ccccc4n3Cc3ccc(F)cc3)CC2)cc1 [Astemizole] |  |  | > 9950 nM |  |  |  |  |  |  | 
7 | CNC(=O)[C@H](Cc1ccccc1)NC(=O)[C@H](CC(C)C)[C@H](CSc1cccs1)C(=O)NO [Batimastat] | > 10000 nM | 95 nM | > 9950 nM | 165 nM |  |  |  |  |  | 
8 | Cc1c(-c2ccc(O)cc2)n(Cc2ccc(OCCN3CCCCCC3)cc2)c2ccc(O)cc12 [Bazedoxifene Acetate] | 5560 nM | 192 nM | 3040 nM | 636 nM |  |  |  |  |  | 
9 | O=C(/C=C/c1cccc(S(=O)(=O)Nc2ccccc2)c1)NO [Belinostat] | 1830 nM | 90 nM | 1290 nM | 188 nM |  |  |  |  |  | 
10 | CC[C@H](NC(=O)[C@H](C)NC)C(=O)N1C[C@@H](O)C[C@H]1Cc1c(-c2[nH]c3cc(F)ccc3c2C[C@@H]2C[C@H](O)CN2C(=O)[C@H](CC)NC(=O)[C@H](C)NC)[nH]c2cc(F)ccc12 [Birin/apant] | > 10000 nM | 190 nM | > 9950 nM | 603 nM |  |  |  |  |  | 
11 | CC(C)C[C@H](NC(=O)[C@H](Cc1ccccc1)NC(=O)c1cnccn1)B(O)O [Bortezomib] | 12 nM | 91 nM | 25 nM | 82 nM |  |  |  |  |  | 
12 | COC(=O)[C@@]12OC[C@]34[C@H]([C@@H](O)[C@@H]1O)[C@@]1(C)CC(=O)C(O)=C(C)[C@@H]1C[C@H]3OC(=O)[C@H](OC(=O)/C=C(\C)C(C)C)[C@@H]24 [Bruceantin, reference compound] |  |  | 25 nM | 7 nM |  |  |  | 5 nM |  | 
13 | COc1ccc(C(=O)c2cn(C(C)C)c3ncnc(N)c23)cc1NC(=O)Nc1ccc(Cl)cc1Cl [CE-245677] | 3330 nM | 619 nM | > 9950 nM | 810 nM |  |  |  |  |  | 
14 | C#Cc1cccc(Nc2ncnc3cc(OC)c(OCCCCCCC(=O)NO)cc23)c1 [CUDC-101] | 349 nM | 41 nM | 408 nM | 52 nM |  |  |  |  |  | 
15 | CO[C@@H]1[C@H](O)C[C@@H](O[C@@H]2C[C@H](Oc3cc4cc5c(c(O)c4c(O)c3C)C(=O)[C@@H](O[C@H]3C[C@@H](O[C@H]4C[C@@H](O[C@H]6C[C@](C)(O)[C@@H](OC(C)=O)[C@H](C)O6)[C@H](O)[C@@H](C)O4)[C@H](O)[C@@H](C)O3)[C@H]([C@H](OC)C(=O)[C@@H](O)[C@@H](C)O)C5)O[C@H](C)[C@@H]2OC(C)=O)O[C@@H]1C [Chromomycin A3] | 30 nM | 31 nM |  | 48 nM |  |  |  |  |  | 
16 | COc1cc2ncnc(Nc3ccc(F)c(Cl)c3)c2cc1NC(=O)/C=C/CN1CCCCC1 [Dacomitinib] | 596 nM | 540 nM | 2620 nM | 953 nM |  |  |  |  |  | 
17 | CCN(CC)CCN(Cc1ccc(-c2ccc(C(F)(F)F)cc2)cc1)C(=O)Cn1c(SCc2ccc(F)cc2)nc(=O)c2c1CCC2 [Darapladib] | 2880 nM | 515 nM | 1730 nM | 850 nM |  |  |  |  |  | 
18 | CNCCCN1c2ccccc2CCc2ccccc21 [Desipramine] | 3330 nM | 238 nM | > 9950 nM | 622 nM |  |  |  |  |  | 
19 | C/C1=C/C[C@@H](/C(C)=C/c2csc(C)n2)OC(=O)C[C@H](O)C(C)(C)C(=O)[C@H](C)[C@@H](O)[C@@H](C)CCC1 [Desoxyepothilone B] | 986 nM | 44 nM |  | 76 nM |  |  |  |  |  | 
20 | CN(NC(=O)CC(=O)NN(C)C(=S)c1ccccc1)C(=S)c1ccccc1 [Elesclomol] | > 10000 nM | 196 nM | 169 nM | 437 nM |  |  |  |  |  | 
21 | COc1cccc2c1C(=O)c1c(O)c3c(c(O)c1C2=O)C[C@@](O)(C(=O)CO)C[C@@H]3O[C@H]1C[C@H](N)[C@@H](O)[C@H](C)O1 [Epirubicin HCl] | 1480 nM | 271 nM | 103 nM | 366 nM |  |  |  |  |  | 
22 | COc1cc2c(Oc3ccc(NC(=O)C4(C(=O)Nc5ccc(F)cc5)CC4)cc3F)ccnc2cc1OCCCN1CCOCC1 [Foretinib] | 6050 nM | 139 nM | 2370 nM | 859 nM |  |  |  |  |  | 

Row | Compound | EC50 [1, 5] | EC50 (P. falciparum Dd2-HLH [2]; [6]) | CC50 at 72 h [3] | EC50 (P. falciparum Dd2-HLH [4]; [7]) | EC50 [1, 8] | EC50 (P. falciparum Dd2-HLH [2]; [9]) | EC50 (P. falciparum Dd2-HLH [4]; [10]) | EC50 (P. falciparum Dd2-HLH [2]; Plasmodium falciparum, DD2, Hec50, 48 h, read-out: Blood stage 48 h EC50) | EC50 ([1]; Plasmodium berghei, HepG2, 48 h) | EC50 (P. falciparum Dd2-HLH [2]; Plasmodium falciparum, DD2, read-out: EC50 (antiplasmodial, quoted in discussion from Supplementary Table 1))
23 | CN(C)c1ccc(C(=C2C=CC(=[N+](C)C)C=C2)c2ccc(N(C)C)cc2)cc1 [Gentian violet] | 214 nM | 104 nM | 136 nM | 456 nM |  |  |  |  |  | 
24 | CN1CCN(C2CCN(C(=O)Nc3cc(Oc4ccc(NC(=O)C5(C(=O)Nc6ccc(F)cc6)CC5)c(F)c4)ccn3)CC2)CC1 [Golvatinib] | 2840 nM | 738 nM | 4360 nM | 1020 nM |  |  |  |  |  | 
25 | CCOc1cc2ncc(C#N)c(Nc3ccc(OCc4cccc(F)c4)c(Cl)c3)c2cc1NC(=O)/C=C/CN(C)C [HKI-357] | 573 nM | 212 nM | 1720 nM | 619 nM |  |  |  |  |  | 
26 | CCc1cc2c(cc1CC)CC(NC[C@H](O)c1ccc(O)c3[nH]c(=O)ccc13)C2 [Indacaterol maleate] | 3110 nM | 682 nM | > 9950 nM | 951 nM |  |  |  |  |  | 
27 | C[C@@H](Oc1ccc2[nH]nc(/C=C/c3cnn(CCO)c3)c2c1)c1c(Cl)cncc1Cl [LY-2874455] | 2360 nM | 512 nM | 875 nM | 733 nM |  |  |  |  |  | 
28 | CS(=O)(=O)CCNCc1ccc(-c2ccc3ncnc(Nc4ccc(OCc5cccc(F)c5)c(Cl)c4)c3c2)o1 [Lapatinib] | 4220 nM | 300 nM | > 9950 nM | 519 nM |  |  |  |  |  | 
29 | O=C(NC1CCN(CCCCC2(C(=O)NCC(F)(F)F)c3ccccc3-c3ccccc32)CC1)c1ccccc1-c1ccc(C(F)(F)F)cc1 [Lomitapide] | 2250 nM | 277 nM | 791 nM | 820 nM |  |  |  |  |  | 
30 | CCNC(=O)c1noc(-c2cc(C(C)C)c(O)cc2O)c1-c1ccc(CN2CCOCC2)cc1 [Luminespib] | 29 nM | 38 nM | 11 nM | 40 nM |  |  |  |  |  | 
31 | C=CCn1c(=O)c2cnc(Nc3ccc(N4CCN(C)CC4)cc3)nc2n1-c1cccc(C(C)(C)O)n1 [MK-1775] | 6100 nM | 595 nM | 310 nM | 681 nM |  |  |  |  |  | 
32 | CN(C)c1ccc2nc3ccc(=[N+](C)C)cc-3sc2c1 [Methylthioninium Chloride] | 1050 nM | 67 nM | 1770 nM | 118 nM |  |  |  |  |  | 
33 | CO[C@@H]1[C@H](N(C)C(=O)c2ccccc2)C[C@H]2O[C@]1(C)n1c3ccccc3c3c4c(c5c6ccccc6n2c5c31)C(=O)NC4 [Midostaurin] | 3600 nM | 86 nM | > 9950 nM |  |  |  |  |  |  | 
34 | O=C1c2c(O)ccc(O)c2C(=O)c2c(NCCNCCO)ccc(NCCNCCO)c21 [Mitoxantrone] | 1720 nM | 239 nM | 217 nM | 357 nM |  |  |  |  |  | 
35 | CC(C)(C)NC[C@H](O)COc1ccccc1C1CCCC1 [Penbutolol] | 20000 nM | 418 nM | > 9950 nM | 980 nM |  |  |  |  |  | 
36 | OC1(c2ccc(Cl)c(C(F)(F)F)c2)CCN(CCCC(c2ccc(F)cc2)c2ccc(F)cc2)CC1 [Penfluridol] | 3170 nM | 218 nM | 1900 nM | 524 nM |  |  |  |  |  | 
37 | Cc1ccc(C(=O)Nc2ccc(CN3CCN(C)CC3)c(C(F)(F)F)c2)cc1C#Cc1cnc2cccnn12 [Pon/atinib] | 241 nM | 294 nM |  | 555 nM |  |  |  |  |  | 
38 | OC(CCN1CCCC1)(c1ccccc1)C1CCCCC1 (stereo not drawn) [Procyclidine hydrochloride] | > 10000 nM | 594 nM | > 9950 nM | 437 nM |  |  |  |  |  | 
39 | CNCCCC1c2ccccc2C=Cc2ccccc21 [Protriptyline hydrochloride] |  | 430 nM | > 9950 nM | 959 nM |  |  |  |  | > 10000 nM | 
40 | CCC1=C[C@@H]2CN(C1)Cc1c([nH]c3ccccc13)[C@@](C(=O)OC)(c1cc3c(cc1OC)N(C)[C@H]1[C@@](O)(C(=O)OC)[C@H](OC(C)=O)[C@]4(CC)C=CCN5CC[C@]31[C@@H]54)C2 [Vinorelbine] |  | 171 nM | 2980 nM | 809 nM |  |  |  |  |  | 
41 | CC(C)c1cc(CNc2nc(Nc3cc(C4CC4)[nH]n3)cc(N3CCN(C)CC3)n2)on1 [XL-228] |  | 56 nM | 537 nM | 621 nM |  |  |  |  |  | 
42 | COC(=O)C[C@](O)(CCC(C)(C)O)C(=O)O[C@@H]1C(OC)=C[C@]23CCCN2CCc2cc4c(cc2[C@H]13)OCO4 [harringtonine, reference compound] | 29 nM | 24 nM |  | 43 nM |  |  |  |  |  | 6.1 nM
43 | Oligomycin A |  |  |  |  | 578 nM | 57 nM | 168 nM |  |  | 
